Where only a bound is given, the exact number is not on record here.

In patent US11773094B2, “Farnesoid X receptor agonists and uses thereof” (Metacrine, Inc., priority 2018, dated 2023) one finds EC50 data, which are given here for 16 compounds.

In the experiment the target is T1, hFXR (Homo sapiens, UniProt Q96RI1).
T1 construct: expressed in transfected cells; host or cells: CV-1 cells
T1 sequence (Q96RI1 1-486): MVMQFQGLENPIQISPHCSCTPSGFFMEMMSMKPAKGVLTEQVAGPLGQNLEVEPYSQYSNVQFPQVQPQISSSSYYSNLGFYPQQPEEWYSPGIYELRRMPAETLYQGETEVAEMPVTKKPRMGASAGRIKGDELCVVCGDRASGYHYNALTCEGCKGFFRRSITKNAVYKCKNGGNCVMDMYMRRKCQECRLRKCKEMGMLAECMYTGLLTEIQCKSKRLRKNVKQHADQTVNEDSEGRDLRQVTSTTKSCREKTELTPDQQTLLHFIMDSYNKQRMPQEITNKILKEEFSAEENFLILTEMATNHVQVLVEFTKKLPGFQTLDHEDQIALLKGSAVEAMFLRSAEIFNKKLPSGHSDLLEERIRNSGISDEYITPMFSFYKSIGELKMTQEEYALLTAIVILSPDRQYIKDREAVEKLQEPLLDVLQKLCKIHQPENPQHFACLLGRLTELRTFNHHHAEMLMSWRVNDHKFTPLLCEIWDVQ
T1 sequence (P19793 1-462 partner): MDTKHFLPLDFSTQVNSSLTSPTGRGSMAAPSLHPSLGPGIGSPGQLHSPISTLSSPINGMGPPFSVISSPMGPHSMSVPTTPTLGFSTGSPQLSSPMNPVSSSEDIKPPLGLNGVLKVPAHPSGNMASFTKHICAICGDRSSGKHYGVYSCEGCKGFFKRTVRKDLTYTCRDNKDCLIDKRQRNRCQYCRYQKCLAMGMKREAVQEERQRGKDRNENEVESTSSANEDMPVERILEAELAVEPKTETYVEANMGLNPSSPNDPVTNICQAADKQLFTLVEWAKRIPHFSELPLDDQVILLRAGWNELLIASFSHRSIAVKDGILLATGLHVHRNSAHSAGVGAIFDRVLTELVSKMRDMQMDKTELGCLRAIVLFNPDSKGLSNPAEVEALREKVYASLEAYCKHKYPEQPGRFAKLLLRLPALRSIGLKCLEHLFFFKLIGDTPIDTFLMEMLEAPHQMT
In words: In Vitro FXR Assay (TK): TK-ECRE-luc reporter in transfected CV-1 cells. Type of experiment: cell-based. The following applies: CV-1 cells transfected with hFXR, hRXR, pCMX-YFP, 18 hrs incubation, luminescence. The protocol:
Example B-1: In Vitro FXR Assay (TK)
CV-1 cells were seeded at a density of 2,000,000 cells in a T175 flask with DMEM+10% charcoal double-stripped FBS and incubated at 37° C. in 5% CO2 for 18 h (O/N).
After 18 h of incubation, the medium in the T175 flask was changed with fresh DMEM+10% charcoal super-stripped serum. In a polypropylene tube, 2500 μL OptiMEM (Life Technologies, Cat #31985-062) was combined with expression plasmids for hFXR, hRXR, TK-ECRE-luc and pCMX-YFP. The tube was then briefly vortexed and incubated at room temperature for 5 minutes. Transfection reagent (X-tremeGENE HP from Roche, Cat #06 366 236 001) was added to the OptiMEM/plasmid mixture vortexed and incubated at room temperature for 20 minutes. Following incubation, the transfection reagent/DNA mixture complex was added to cells in the T175 flask and the cells were incubated at 37° C. in 5% CO2 for 18 h (O/N).
Compounds were serially diluted in DMSO and added to transfected CV-1 cells. The cells were then incubated for 18 hrs. The next day cells were lysed and examined for luminescence.

The compound `COc1ccc(C23CCC(CN(c4ccnc(-c5cnn(C(C)(C)C)c5)c4)C(=O)[C@H]4CC[C@H](OC(=O)N5CC(O)C5)CC4)(CC2)CC3)cc1C` [Compound 1.13, 4-((2-(1-(tert-Butyl)-1H-pyrazol-4-yl)pyridin-4-yl)((4-(4-methoxy-3-methylphenyl)bicyclo[2.2.2]octan-1-yl)methyl)carbamoyl) (trans-cyclohexyl) 3-hydroxyazetidine-1-carboxylate] showed an EC50 of 10 to 1000 nM.

In turn, `COc1ccc([C@H]2CC[C@H](CN(c3cc(-c4cnn(C(C)(C)C)c4)ccn3)C(=O)[C@H]3CC[C@H](OC(=O)NC4CCOCC4)CC3)CC2)cc1C` [Compound 1.11, trans-4-((4-(1-(tert-Butyl)-1H-pyrazol-4-yl)pyridin-2-yl)((trans-4-(4-methoxy-3-methylphenyl)cyclohexyl)methyl)carbamoyl) cyclohexyl (tetrahydro-2H-pyran-4-yl)carbamate] came in with an EC50 of 10 to 1000 nM.

On to `COc1ccc(C23CCC(CN(c4cc(-c5cnn(C(C)(C)C)c5)ccn4)C(=O)[C@H]4CC[C@H](OC(=O)NC5CCOCC5)CC4)(CC2)CC3)cc1C` [Compound 3.01, 4-((4-(1-(tert-Butyl)-1H-pyrazol-4-yl)pyridin-2-yl)((4-(4-methoxy-3-methylphenyl)bicyclo[2.2.2]octan-1-yl)methyl)carbamoyl) cyclohexyl (tetrahydro-2H-pyran-4-yl)trans-carbamate], for which the EC50 is no more than 10 nM.

For `COc1c(C)cc(C23CCC(CN(c4cc(-c5cnn(C(C)(C)C)c5)ccn4)C(=O)[C@H]4CC[C@H](OC(=O)N5CC(O)C5)CC4)(CC2)CC3)cc1C` [Compound 3.04, 4-((4-(1-(tert-Butyl)-1H-pyrazol-4-yl)pyridin-2-yl)((4-(4-methoxy-3,5-dimethylphenyl)bicyclo[2.2.2]octan-1-yl)methyl)carbamoyl) (trans-cyclohexyl) 3-hydroxyazetidine-1-carboxylate], the EC50 is no more than 10 nM.

`COc1ccc(C23CCC(CN(c4cc(-c5cnn(C(C)(C)C)c5)ccn4)C(=O)[C@H]4CC[C@H](OC(=O)NCCC(C)(C)O)CC4)(CC2)CC3)cc1C` [Compound 2.32, 4-((4-(1-(tert-Butyl)-1H-pyrazol-4-yl)pyridin-2-yl)((4-(4-methoxy-3-methylphenyl)bicyclo[2.2.2]octan-1-yl)methyl)carbamoyl) (trans-cyclohexyl) (3-hvdroxy-3-methylbutyl)carbamate] returned an EC50 of no more than 10 nM.

`COc1ccc(C23CCC(CN(c4cc(-n5cnc(C(C)(C)C)c5)ccn4)C(=O)[C@H]4CC[C@H](OC(=O)N5CC(O)C5)CC4)(CC2)CC3)cc1C` [Compound 4.11, 4-((4-(4-(tert-Butyl)-1H-imidazol-1-yl)pyridin-2-yl)((4-(4-methoxy-3-methylphenyl)bicyclo[2.2.2]octan-1-yl)methyl)carbamoyl) cyclohexyl trans-3-hydroxyazetidine-1-carboxylate]: the EC50 lay in the range of 10 to 1000 nM.

`COc1ccc(C23CCC(CN(c4cc(-c5cnn(C(C)(C)C)c5)ccn4)C(=O)[C@H]4CC[C@H](OC(=O)N5CC[C@H](O)C5)CC4)(CC2)CC3)cc1C` [Compound 2.34, (S)-4-((4-(1-(tert-Butyl)-1H-pyrazol-4-yl)pyridin-2-yl)((4-(4-methoxy-3-methylphenyl)bicyclo[2.2.2]octan-1-yl)methyl)carbamoyl) cyclohexyl trans-3-hydroxypyrrolidine-1-carboxylate] yielded an EC50 of no more than 10 nM.

On to `COc1ccc([C@H]2CC[C@H](CN(c3cc(-c4cnc(C(C)(C)C)s4)ccn3)C(=O)[C@H]3CC[C@H](OC(=O)NC4CCOCC4)CC3)CC2)cc1C` [Compound 1], for which the half-maximal effective concentration (EC50) lay within 10 to 1000 nM.

Consider `COc1ccc(C23CCC(CN(c4cc(-c5cnn(C(C)(C)C)c5)ccn4)C(=O)[C@H]4CC[C@H](OC(=O)NCCCO)CC4)(CC2)CC3)cc1C` [Compound 2.31, 4-((4-(1-(tert-Butyl)-1H-pyrazol-4-yl)pyridin-2-yl)((4-(4-methoxy-3-methylphenyl)bicyclo[2.2.2]octan-1-yl)methyl)carbamoyl) (trans-cyclohexyl) (3-hydroxypropyl)carbamate], for which the 50% effective concentration (EC50) is no more than 10 nM.

Take `COc1ccc(C23CCC(CN(c4cc(-c5coc(C(C)(C)C)n5)ccn4)C(=O)[C@H]4CC[C@H](OC(=O)N5CC(C)(O)C5)CC4)(CC2)CC3)cc1C` [Compound 2.12, 4-((4-(2-(tert-Butyl)oxazol-4-yl)pyridin-2-yl)((4-(4-methoxy-3-methylphenyl)bicyclo[2.2.2]octan-1-yl)methyl)carbamoyl) (trans-cyclohexyl) 3-hydroxy-3-methylazetidine-1-carboxylate]: the EC50 was no more than 10 nM.

In the case of `CCC(CC)(CC)n1cc(-c2ccnc(N(CC34CCC(c5ccc(OC)c(C)c5)(CC3)CC4)C(=O)[C@H]3CC[C@H](OC(=O)N4CC(O)C4)CC3)c2)cn1` [Compound 4.08, 4-((4-(1-(3-Ethylpentan-3-yl)-1H-pyrazol-4-yl)pyridin-2-yl)((4-(4-methoxy-3-methylphenyl)bicyclo[2.2.2]octan-1-yl)methyl)carbamoyl) cyclohexyl trans-3-hydroxyazetidine-1-carboxylate], the EC50 fell in the range of 10 to 1000 nM.

As to `COc1ccc(C23CCC(CN(c4cc(-c5cnn(C(C)(C)C)c5)ccn4)C(=O)[C@H]4CC[C@H](OC(=O)NC5COC5)CC4)(CC2)CC3)cc1C` [Compound 2.28, 4-((4-(1-(tert-Butyl)-1H-pyrazol-4-yl)pyridin-2-yl)((4-(4-methoxy-3-methylphenyl)bicyclo[2.2.2]octan-1-yl)methyl)carbamoyl) (trans-cyclohexyl) oxetan-3-ylcarbamate], the EC50 is no more than 10 nM.

`CCC(C)(C)n1cc(-c2ccnc(N(CC34CCC(c5ccc(OC)c(C)c5)(CC3)CC4)C(=O)[C@H]3CC[C@H](OC(=O)NCCCO)CC3)c2)cn1` [Compound 4.03, 4-(((4-(4-Methoxy-3-methylphenyl)bicyclo[2.2.2]octan-1-yl)methyl)(4-(1-(tert-pentyl)-1H-pyrazol-4-yl)pyridin-2-yl)carbamoyl) cyclohexyl trans-(3-hydroxypropyl)carbamate] gave an EC50 of no more than 10 nM.

The compound `COc1ccc(C23CCC(CN(c4cc(-c5cnn(C(C)(C)C)c5)ccn4)C(=O)[C@H]4CC[C@H](OC(=O)N5CC[C@H]5CO)CC4)(CC2)CC3)cc1C` [Compound 2.21, (S)-4-((4-(1-(tert-Butyl)-1H-pyrazol-4-yl)pyridin-2-yl)((4-(4-methoxy-3-methylphenyl)bicyclo[2.2.2]octan-1-yl)methyl)carbamoyl)cyclohexyl 2-(hydroxymethyl)azetidine- trans-1-carboxylate] registered an EC50 of no more than 10 nM.

`COc1c(C)cc(C23CCC(CN(c4cncc(-c5cnn(C(C)(C)C)c5)n4)C(=O)[C@H]4CC[C@H](OC(=O)N5CC(O)C5)CC4)(CC2)CC3)cc1C` [Compound 3.13, 4-((6-(1-(tert-Butyl)-1H-pyrazol-4-yl)pyrazin-2-yl)((4-(4-methoxy-3,5-dimethylphenyl)bicyclo[2.2.2]octan-1-yl)methyl)carbamoyl) (trans-cyclohexyl) 3-hydroxyazetidine-1-carboxylate]: the EC50 fell in the range of 10 to 1000 nM.

`COc1ccc(C23CCC(CN(c4cc(-c5cnc(C(C)(C)C)s5)ccn4)C(=O)[C@H]4CC[C@H](OC(=O)N5CC(O)C5)CC4)(CC2)CC3)cc1C` [Compound 3.07, 4-((4-(2-(tert-Butyl)thiazol-5-yl)pyridin-2-yl)((4-(4-methoxy-3-methylphenyl)bicyclo[2.2.2]octan-1-yl)methyl)carbamoyl) cyclohexyl trans-3-hydroxyazetidine-1-carboxylate] gave an EC50 of no more than 10 nM.
